From ChEMBL document CHEMBL3885881, “DrugMatrix”

Species: Rattus norvegicus
Experiment: DrugMatrix - Regimen: Daily Repeat
Type: toxicity, organism-based, Sprague-Dawley
Design: regimen Daily Repeat, gender Male, age 6-8 weeks
Settings: in vivo, po, route oral GAVAGE, […]; for ABSOLUTE BASOPHIL / ABSOLUTE EOSINOPHIL / ABSOLUTE LYMPHOCYTE / ABSOLUTE MONOCYTE / ABSOLUTE SEGMENTED NEUTROPHIL / BASOPHIL / EOSINOPHIL / ERYTHROCYTE COUNT / HEMATOCRIT / HEMOGLOBIN / LEUKOCYTE COUNT / LYMPHOCYTE / MEAN CORPUSCULAR HEMOGLOBIN / MEAN CORPUSCULAR HEMOGLOBIN CONCENTRATION / MEAN CORPUSCULAR VOLUME / MONOCYTE / NEUTROPHIL / NUCLEATED RED BLOOD CELLS / PLATELET COUNT: tissue Blood; for ALANINE AMINOTRANSFERASE / ALBUMIN / ALKALINE PHOSPHATASE / ASPARTATE AMINOTRANSFERASE / BLOOD UREA NITROGEN / CARBON DIOXIDE / CHLORIDE / CHOLESTEROL / CREATINE PHOSPHOKINASE / CREATININE / GLUCOSE / LACTATE DEHYDROGENASE / LIPASE / PHOSPHORUS / POTASSIUM / SODIUM / TOTAL BILIRUBIN / TOTAL PROTEIN / URIC ACID: tissue Plasma
[1] = 10 mg/kg, 120 h, dose level Low, time 5 day
[2] = 1100 mg/kg, 72 h, dose level High, time 3 day
[3] = 1100 mg/kg, 120 h, dose level High, time 5 day

Structure (SMILES): COCCOC(=O)C1=C(C)NC(C)=C(C(=O)OC(C)C)C1c1cccc([N+](=O)[O-])c1 (centres undefined) [NIMODIPINE]
- ABSOLUTE BASOPHIL [1]: 0 CELLS/uL
- ABSOLUTE EOSINOPHIL [1]: 0 CELLS/uL
- ABSOLUTE LYMPHOCYTE [1]: 13499.67 CELLS/uL
- ABSOLUTE MONOCYTE [1]: 96.33 CELLS/uL
- ABSOLUTE SEGMENTED NEUTROPHIL [1]: 1037.33 CELLS/uL
- BASOPHIL [1]: 0%
- EOSINOPHIL [1]: 0%
- ERYTHROCYTE COUNT [1]: 5.7 x10E6/uL
- HEMATOCRIT [1]: 36.23%
- HEMOGLOBIN [1]: 13.9 G/DL
- LEUKOCYTE COUNT [1]: 14.63 x10E3/uL
- LYMPHOCYTE [1]: 92.67%
- MEAN CORPUSCULAR HEMOGLOBIN [1]: 24.4 pg
- MEAN CORPUSCULAR HEMOGLOBIN CONCENTRATION [1]: 38.37 G/DL
- MEAN CORPUSCULAR VOLUME [1]: 63.63 fL
- MONOCYTE [1]: 0.67%
- NEUTROPHIL [1]: 6.67%
- NUCLEATED RED BLOOD CELLS [1]: 0 /100WBC
- PLATELET COUNT [1]: 940 x10E3/uL
- ALANINE AMINOTRANSFERASE [1]: 59.33 u/L
- ALBUMIN [1]: 4.3 G/DL
- ALKALINE PHOSPHATASE [1]: 389.33 u/L
- ASPARTATE AMINOTRANSFERASE [1]: 102.33 u/L
- BLOOD UREA NITROGEN [1]: 15 mg/dL
- CARBON DIOXIDE [1]: 31.67 mmol/L
- CHLORIDE [1]: 100 MEQ/L
- CHOLESTEROL [1]: 63 mg/dL
- CREATINE PHOSPHOKINASE [1]: 716.33 u/L
- CREATININE [1]: 0.16 mg/dL
- GLUCOSE [1]: 145.33 mg/dL
- LACTATE DEHYDROGENASE [1]: 194.33 u/L
- LIPASE [1]: 9.33 u/L
- PHOSPHORUS [1]: 10.4 mg/dL
- POTASSIUM [1]: 5.95 MEQ/L
- SODIUM [1]: 143.1 MEQ/L
- TOTAL BILIRUBIN [1]: 0.23 mg/dL
- TOTAL PROTEIN [1]: 6.2 G/DL
- URIC ACID [1]: 0.83 mg/dL
- ABSOLUTE BASOPHIL [2]: 0 CELLS/uL
- ABSOLUTE EOSINOPHIL [2]: 0 CELLS/uL
- ABSOLUTE LYMPHOCYTE [2]: 8640.33 CELLS/uL
- ABSOLUTE MONOCYTE [2]: 0 CELLS/uL
- ABSOLUTE SEGMENTED NEUTROPHIL [2]: 859.67 CELLS/uL
- BASOPHIL [2]: 0%
- EOSINOPHIL [2]: 0%
- ERYTHROCYTE COUNT [2]: 6.21 x10E6/uL
- HEMATOCRIT [2]: 37.2%
- HEMOGLOBIN [2]: 14.77 G/DL
- LEUKOCYTE COUNT [2]: 9.5 x10E3/uL
- LYMPHOCYTE [2]: 91%
- MEAN CORPUSCULAR HEMOGLOBIN [2]: 23.77 pg
- MEAN CORPUSCULAR HEMOGLOBIN CONCENTRATION [2]: 39.7 G/DL
- MEAN CORPUSCULAR VOLUME [2]: 59.87 fL
- MONOCYTE [2]: 0%
- NEUTROPHIL [2]: 9%
- NUCLEATED RED BLOOD CELLS [2]: 0.33 /100WBC
- PLATELET COUNT [2]: 1341.67 x10E3/uL
- ALANINE AMINOTRANSFERASE [2]: 90 u/L
- ALBUMIN [2]: 4.17 G/DL
- ALKALINE PHOSPHATASE [2]: 427.67 u/L
- ASPARTATE AMINOTRANSFERASE [2]: 82.67 u/L
- BLOOD UREA NITROGEN [2]: 13 mg/dL
- CARBON DIOXIDE [2]: 27.33 mmol/L
- CHLORIDE [2]: 97.67 MEQ/L
- CHOLESTEROL [2]: 77.67 mg/dL
- CREATINE PHOSPHOKINASE [2]: 248.33 u/L
- CREATININE [2]: 0.17 mg/dL
- GLUCOSE [2]: 211.67 mg/dL
- LACTATE DEHYDROGENASE [2]: 205.33 u/L
- LIPASE [2]: 11.33 u/L
- PHOSPHORUS [2]: 10.23 mg/dL
- POTASSIUM [2]: 4.32 MEQ/L
- SODIUM [2]: 139.8 MEQ/L
- TOTAL BILIRUBIN [2]: 0.4 mg/dL
- TOTAL PROTEIN [2]: 6.33 G/DL
- URIC ACID [2]: 0.47 mg/dL
- ABSOLUTE BASOPHIL [3]: 0 CELLS/uL
- ABSOLUTE EOSINOPHIL [3]: 0 CELLS/uL
- ABSOLUTE LYMPHOCYTE [3]: 5312.67 CELLS/uL
- ABSOLUTE MONOCYTE [3]: 159.33 CELLS/uL
- ABSOLUTE SEGMENTED NEUTROPHIL [3]: 1728 CELLS/uL
- BASOPHIL [3]: 0%
- EOSINOPHIL [3]: 0%
- ERYTHROCYTE COUNT [3]: 7.19 x10E6/uL
- HEMATOCRIT [3]: 42.83%
- HEMOGLOBIN [3]: 16.87 G/DL
- LEUKOCYTE COUNT [3]: 7.2 x10E3/uL
- LYMPHOCYTE [3]: 75.67%
- MEAN CORPUSCULAR HEMOGLOBIN [3]: 23.43 pg
- MEAN CORPUSCULAR HEMOGLOBIN CONCENTRATION [3]: 39.33 G/DL
- MEAN CORPUSCULAR VOLUME [3]: 59.63 fL
- MONOCYTE [3]: 2%
- NEUTROPHIL [3]: 22.33%
- NUCLEATED RED BLOOD CELLS [3]: 0 /100WBC
- PLATELET COUNT [3]: 1410 x10E3/uL
- ALANINE AMINOTRANSFERASE [3]: 65.33 u/L
- ALBUMIN [3]: 4 G/DL
- ALKALINE PHOSPHATASE [3]: 160 u/L
- ASPARTATE AMINOTRANSFERASE [3]: 89.33 u/L
- BLOOD UREA NITROGEN [3]: 43.67 mg/dL
- CARBON DIOXIDE [3]: 34.33 mmol/L
- CHLORIDE [3]: 84 MEQ/L
- CHOLESTEROL [3]: 75 mg/dL
- CREATINE PHOSPHOKINASE [3]: 283.67 u/L
- CREATININE [3]: 0.22 mg/dL
- GLUCOSE [3]: 198.67 mg/dL
- LACTATE DEHYDROGENASE [3]: 180 u/L
- LIPASE [3]: 12.33 u/L
- PHOSPHORUS [3]: 9.97 mg/dL
- POTASSIUM [3]: 3.85 MEQ/L
- SODIUM [3]: 133.83 MEQ/L
- TOTAL BILIRUBIN [3]: 0.3 mg/dL
- TOTAL PROTEIN [3]: 6.2 G/DL
- URIC ACID [3]: 0.3 mg/dL
